In US6274715A, “Tricyclic erythromycin derivatives” (priority 1997, dated 2001):
Converted amounts (≈) assume the structure as drawn.

What was measured:
Format in all cases: cell-based
PSEUDOMONAS CEPACIA 296I = assay: In vitro antibacterial activity, MIC, BHI agar dilution; settings: P. cepacia 296I, unit assumed
[1] = test system: PROVIDENCIA STUARTII CMX 640; settings: P. stuartii CMX 640; BHI agar; unit assumed
[2] = test system: PSEUDOMONAS AERUGINOSA K799/WT; assay: In vitro antibacterial activity, MIC, BHI agar dilution; settings: P. aeruginosa K799/WT, unit assumed
[3] = test system: STREPTOCOCCUS PYOGENES EES61; assay: as above; settings: S. pyogenes EES61, unit assumed
[4] = test system: STREPTOCOCCUS PYOGENES 930; assay: as above; settings: S. pyogenes 930, unit assumed
ESCHERICHIA COLI KNK 437 = settings: E. coli KNK 437; BHI agar; unit assumed
[5] = test system: STAPHYLOCOCCUS AUREUS NCTC10649M; assay: In vitro antibacterial activity, MIC, BHI agar dilution; settings: S. aureus NCTC10649M, unit assumed
[6] = test system: PSEUDOMONAS AERUGINOSA 5007; assay: as above; settings: P. aeruginosa 5007, unit assumed
ESCHERICHIA COLI H560 = assay: as above; settings: E. coli H560, unit assumed
ESCHERICHIA COLI SS = assay: as above; settings: E. coli SS, unit assumed
[7] = test system: MYCOBACTERIUM SMEGMATIS ATCC 114; assay: as above; settings: M. smegmatis ATCC 114, unit assumed
[8] = test system: STAPHYLOCOCCUS AUREUS CMX 642A; assay: as above; settings: S. aureus CMX 642A, unit assumed
M[…] ATCC 9341 = assay: as above; settings: M. luteus ATCC 9341, unit assumed
In short: (§1)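 Agar dilution in BHI: plates inoculated with 1:100 dilutions of organisms (1:10 for Micrococcus and Streptococcus), incubated 20-24 h at 35-37° C, then inspected for the lowest inhibitory concentration against a drug-free growth control.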

EN[…] ATCC 8043 = assay: as above; settings: E. faecium ATCC 8043, unit assumed
In short: as §1

STR[…] 508 = assay: as above; settings: S. agalactiae CMX 508, unit assumed
In short: as §1

M[…] ATCC 4698 = assay: as above; settings: M. luteus ATCC 4698, unit assumed
In short: as §1

[9] = test system: STAPHYLOCOCCUS AUREUS A-5278; assay: as above; settings: S. aureus A-5278, unit assumed
[10] = test system: PSEUDOMONAS AERUGINOSA BMH10; assay: as above; settings: P. aeruginosa BMH10, unit assumed
CANDIDA ALBICANS CCH 442 = assay: as above; settings: C. albicans CCH 442, unit assumed
[11] = test system: ENTEROBACTER AEROGENES ATCC 13048; assay: as above; settings: E. aerogenes ATCC 13048, unit assumed
[12] = test system: STAPHYLOCOCCUS EPIDERMIDIS 3519; settings: S. epidermidis 3519; BHI agar; unit assumed
[13] = test system: STAPHYLOCOCCUS AUREUS CMX 553; assay: In vitro antibacterial activity, MIC, BHI agar dilution; settings: S. aureus CMX 553, unit assumed
[14] = test system: STREPTOCOCCUS BOVIS A-5169; assay: as above; settings: S. bovis A-5169, unit assumed
[15] = test system: STREPTOCOCCUS PYOGENES PIU 2548; assay: as above; settings: S. pyogenes PIU 2548, unit assumed
ESCHERICHIA COLI JUHL = settings: E. coli JUHL; BHI agar; unit assumed
[16] = test system: STAPHYLOCOCCUS AUREUS A5177; assay: In vitro antibacterial activity, MIC, BHI agar dilution; settings: S. aureus A5177, unit assumed
[17] = test system: ACINETOBACTER CALCOACETICUS CMX 669; assay: as above; settings: A. calcoaceticus CMX 669, unit assumed
[18] = test system: PSEUDOMONAS AERUGINOSA DPHD-5263; assay: as above; settings: P. aeruginosa DPHD-5263, unit assumed
[19] = test system: PSEUDOMONAS AERUGINOSA K799/61; assay: as above; settings: P. aeruginosa K799/61, unit assumed
[20] = test system: STAPHYLOCOCCUS AUREUS ATCC 6538P; assay: as above; settings: S. aureus ATCC 6538P, 35-37° C., 20 to 24 hours, unit assumed
[21] = test system: STAPHYLOCOCCUS AUREUS 1775; assay: as above; settings: S. aureus 1775, unit assumed
[22] = test system: PSEUDOMONAS AERUGINOSA DPHD-2862; assay: as above; settings: P. aeruginosa DPHD-2862, unit assumed
ESCHERICHIA COLI DC-2 = assay: as above; settings: E. coli DC-2, unit assumed
[23] = test system: KLEBSIELLA PNEUMONIAE ATCC 8045; assay: as above; settings: K. pneumoniae ATCC 8045, unit assumed

SMILES	MIC (PSEUDOMONAS CEPACIA 296I)	MIC [1]	MIC [2]	MIC [3]	MIC (ESCHERICHIA COLI KNK 437)	MIC [5]	MIC [6]	MIC (ESCHERICHIA COLI H560)	MIC (ESCHERICHIA COLI SS)	MIC [7]	MIC [8]	MIC (M[…] ATCC 9341)	MIC (EN[…] ATCC 8043)	MIC (STR[…] 508)	MIC (M[…] ATCC 4698)	MIC [9]	MIC [10]	MIC (CANDIDA ALBICANS CCH 442)	MIC [11]	MIC [12]	further results
CC[C@H]1OC(=O)[C@H](C)C(=O)[C@H](C)[C@@H](O[C@@H]2O[C@H](C)C[C@H](N(C)C)[C@H]2O)[C@](C)(OC)C[C@@H](C)C2=N[C@H](COCc3cccnc3)CN3C(=O)O[C@@]1(C)[C@H]3[C@H]2C [Example 82]	> 100 µg/mL	> 100 µg/mL	> 100 µg/mL	0.05 µg/mL (≈ 0.0659 µM)	> 100 µg/mL	0.39 µg/mL (≈ 0.514 µM)	> 100 µg/mL	> 100 µg/mL	0.78 µg/mL (≈ 1.03 µM)	3.1 µg/mL (≈ 4.08 µM)	0.39 µg/mL (≈ 0.514 µM)	0.05 µg/mL (≈ 0.0659 µM)	0.05 µg/mL (≈ 0.0659 µM)	0.05 µg/mL (≈ 0.0659 µM)	0.39 µg/mL (≈ 0.514 µM)	> 100 µg/mL	> 100 µg/mL	> 100 µg/mL	> 100 µg/mL	0.39 µg/mL (≈ 0.514 µM)	MIC [4]: > 100 µg/mL; MIC [13]: 0.39 µg/mL (≈ 0.514 µM); MIC [14]: 0.05 µg/mL (≈ 0.0659 µM); MIC [15]: 0.39 µg/mL (≈ 0.514 µM); MIC (ESCHERICHIA COLI JUHL): > 100 µg/mL; MIC [16]: 0.39 µg/mL (≈ 0.514 µM); MIC [17]: > 100 µg/mL; MIC [18]: > 100 µg/mL; MIC [19]: 3.1 µg/mL (≈ 4.08 µM); MIC [20]: 0.39 µg/mL (≈ 0.514 µM); MIC [21]: > 100 µg/mL; MIC [22]: > 100 µg/mL; MIC (ESCHERICHIA COLI DC-2): > 100 µg/mL
CC[C@H]1OC(=O)[C@H](C)C(=O)[C@H](C)[C@@H](O[C@@H]2O[C@H](C)C[C@H](N(C)C)[C@H]2O)[C@](C)(OC)C[C@@H](C)C2=N[C@H](COCc3ccccc3)CN3C(=O)O[C@@]1(C)[C@H]3[C@H]2C [Example 88]	100 µg/mL (≈ 132 µM)	> 100 µg/mL	> 100 µg/mL	≤ 0.005 µg/mL	> 100 µg/mL	0.2 µg/mL (≈ 0.264 µM)	> 100 µg/mL	100 µg/mL (≈ 132 µM)	1.56 µg/mL (≈ 2.06 µM)	0.39 µg/mL (≈ 0.515 µM)	0.39 µg/mL (≈ 0.515 µM)	0.1 µg/mL (≈ 0.132 µM)	0.2 µg/mL (≈ 0.264 µM)	0.05 µg/mL (≈ 0.066 µM)	0.2 µg/mL (≈ 0.264 µM)	> 100 µg/mL	> 100 µg/mL	> 100 µg/mL	> 100 µg/mL	0.39 µg/mL (≈ 0.515 µM)	MIC [23]: > 100 µg/mL; MIC [13]: 0.2 µg/mL (≈ 0.264 µM); MIC [14]: 0.02 µg/mL (≈ 0.0264 µM); MIC (ESCHERICHIA COLI JUHL): > 100 µg/mL; MIC [16]: 0.2 µg/mL (≈ 0.264 µM); MIC [17]: 100 µg/mL (≈ 132 µM); MIC [18]: > 100 µg/mL; MIC [19]: 6.2 µg/mL (≈ 8.18 µM); MIC [20]: 0.39 µg/mL (≈ 0.515 µM); MIC [21]: > 100 µg/mL; MIC [22]: > 100 µg/mL; MIC (ESCHERICHIA COLI DC-2): > 100 µg/mL
